Data from PMC4306533, “Distinct Features of Cap Binding by eIF4E1b Proteins” (Journal of Molecular Biology, 2015).

Tests used:
[1] = biological target: T1, XeIF4E1a (Xenopus laevis, UniProt P48597); assay: time-synchronized fluorescence titration of cap analogue binding; conditions: for ΔΔG^o − glycerol XeIF4E1a: without glycerol; for Kas + glycerol XeIF4E1a / Kas − glycerol XeIF4E1a: equilibrium association constant; for Kas + glycerol XeIF4E1a / ΔΔG^o + glycerol XeIF4E1a: 10% glycerol; for Kas − glycerol XeIF4E1a: buffer without glycerol
T1 construct: made in house; host or cells: E. coli Rosetta2(DE3)
T1 sequence (P48597 whole entry): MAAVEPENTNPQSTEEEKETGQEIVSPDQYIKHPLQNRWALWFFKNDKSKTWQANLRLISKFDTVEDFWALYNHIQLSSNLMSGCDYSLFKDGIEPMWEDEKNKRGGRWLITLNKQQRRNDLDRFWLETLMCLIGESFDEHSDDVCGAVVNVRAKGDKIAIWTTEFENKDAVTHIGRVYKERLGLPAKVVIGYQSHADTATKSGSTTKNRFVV
Text: (§1) The time-synchronized fluorescence titration method, widely used to determine the affinity constants of cap–eIF4E complexes [[20,22–26]], measures the quenching of the intrinsic fluorescence of tryptophan residues due to cap binding (Fig. S2). Knowledge of the equilibrium association constant Kas enables the calculation of the free-energy changes involved in the interaction between eIF4E and ligand, according to the standard equation ΔG° = − RTlnKas.
(§2) For human eIF4E1a and eIF4E1b and also for Xenopus eIF4E1a and its mutated forms, measurements were carried out using 0.1 μM protein in 50 mM Hepes/KOH (pH 7.2), 134.5 mM KCl, 0.5 mM EDTA and 1 mM DTT. For Xenopus eIF4E1b(ΔN27), the concentration was 0.2 μM and glycerol was added to the buffer to 10% (v/v) final concentration. […] Fluorescence of measured samples was excited at 280 nm (2.5 nm bandwidth) and detected at 337 nm or 330 nm (4 nm bandwidth), thus reducing the signal originated from the free cap analogues. Measurements were carried out on a LS-55 spectrofluorometer (Perkin Elmer Co.) using freshly prepared proteins, and the fluorescence intensities were corrected for sample dilution and the inner filter effect.
(§3) Equilibrium association constants (Kas) were determined by fitting the theoretical dependence of fluorescence intensity on the total concentration of the cap analogue to the experimental data points, according to the equation described previously (see Ref. [22] and Fig. S2c).
(§4) The final Kas was calculated as a weighted average of 2–6 independent titrations with the weights taken as the reciprocal of the numerical standard deviation squared. Numerical, nonlinear least-squares regression analysis was performed using Origin 6.0 (Microcal Software Inc.). Obtained association constants were used to determine the Gibbs free energy according to the standard equation ΔG° = − RTlnKas.

[2] = system: XeIF4E1a; assay: as above; set-up: species or system Xenopus laevis; conditions: without glycerol
Text: as §1, §2, §3, §4

[3] = biological target: T2, heIF4E1a (Homo sapiens, UniProt P06730); assay: as above; conditions: for ΔΔG^o − glycerol heIF4E1a: without glycerol; for Kas − glycerol heIF4E1a: equilibrium association constant, buffer without glycerol
T2 construct: made in house; host or cells: E. coli Rosetta2(DE3)
T2 sequence (P06730 whole entry): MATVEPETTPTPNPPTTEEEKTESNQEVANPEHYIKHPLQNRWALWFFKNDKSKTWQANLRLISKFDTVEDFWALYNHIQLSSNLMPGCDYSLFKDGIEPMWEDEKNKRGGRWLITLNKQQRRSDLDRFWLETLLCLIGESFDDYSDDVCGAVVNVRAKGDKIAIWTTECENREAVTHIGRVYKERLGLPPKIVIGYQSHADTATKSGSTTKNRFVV
Text: as §1, §2, §3, §4

[4] = biological target: T3, heIF4E1b (Homo sapiens, UniProt A6NMX2); assay: as above; conditions: for Kas − glycerol heIF4E1b: equilibrium association constant, buffer without glycerol
T3 construct: made in house; host or cells: E. coli Rosetta2(DE3)
T3 sequence (A6NMX2 1-242): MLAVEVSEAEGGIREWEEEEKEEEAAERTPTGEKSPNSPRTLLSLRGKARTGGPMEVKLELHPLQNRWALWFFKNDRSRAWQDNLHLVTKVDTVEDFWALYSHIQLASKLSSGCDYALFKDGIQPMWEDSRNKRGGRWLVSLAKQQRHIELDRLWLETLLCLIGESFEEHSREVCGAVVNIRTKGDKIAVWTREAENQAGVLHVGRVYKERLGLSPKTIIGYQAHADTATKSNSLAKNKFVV
Text: as §1, §2, §3, §4

[5] = system: heIF4E1b; assay: as above; set-up: species or system human; conditions: without glycerol
Text: as §1, §2, §3, §4

[6] = system: XeIF4E1bΔN27; assay: as above; set-up: species or system Xenopus laevis; conditions: for Kas + glycerol XeIF4E1bΔN27: equilibrium association constant
Text: as §1, §2, §3, §4

[7] = biological target: T4, X4E1a1 (E101S) (Xenopus laevis, UniProt P48597, E101S); assay: fluorescence titration, XeIF4E1a mutant; type: binding; conditions: mutant (E101S) of XeIF4E1a
T4 construct: made in house; host or cells: E. coli Rosetta2(DE3)
T4 sequence (P48597 whole entry E101S): as the sequence (P48597 whole entry) above, with E101S counted along it
Text: (§5) We tested the effect on cap-binding activity of these positions in the fluorescence assay with six mutated recombinant versions of Xenopus eIF4E1a (Fig. S4). The amino acids were introduced in XeIF4E1a sequentially in the order: E101S/K102R/S195A/M82S/T206L/T207S (numbering of the XeIF4E1a sequence is shifted backward by 4 amino acids relative to XeIF4E1b). […] The biggest contribution to the weaker cap binding of XeIF4E1a, in each case about 20%, resulted from changing Glu101 to Ser and Thr206 to Leu coupled with Thr207 to Ser, with the remaining mutations having only minor effects. […] Glu101 is a solvent-accessible amino acid and is proximal to Trp98 in the S3-S4 loop. […] Attenuation of the cap-binding affinity of XeIF4E1a resulting from mutating Thr206 and Thr207 is consistent with our results mentioned above showing significant influence of C-terminal loop residues on binding phosphate and the second nucleotide.
(§6) For human eIF4E1a and eIF4E1b and also for Xenopus eIF4E1a and its mutated forms, measurements were carried out using 0.1 μM protein in 50 mM Hepes/KOH (pH 7.2), 134.5 mM KCl, 0.5 mM EDTA and 1 mM DTT. For Xenopus eIF4E1b(ΔN27), the concentration was 0.2 μM and glycerol was added to the buffer to 10% (v/v) final concentration. […] The gradually increasing concentration of cap analogue quenches protein fluorescence without shifting the spectrum maximum, while at high concentrations, the fluorescence signal of free cap analogue dominates over the fluorescence from other solution components including free eIF4E and eIF4E in complex with cap (Fig. S2a). Fluorescence of measured samples was excited at 280 nm (2.5 nm bandwidth) and detected at 337 nm or 330 nm (4 nm bandwidth), thus reducing the signal originated from the free cap analogues. Measurements were carried out on a LS-55 spectrofluorometer (Perkin Elmer Co.) using freshly prepared proteins, and the fluorescence intensities were corrected for sample dilution and the inner filter effect.
(§7) Equilibrium association constants (Kas) were determined by fitting the theoretical dependence of fluorescence intensity on the total concentration of the cap analogue to the experimental data points, according to the equation described previously (see Ref. [22] and Fig. S2c). […] Along with Kas and the concentration of the active protein [P0^act], other parameters such as fL and ∆f = fPact − fPL are also gained from the fit, where fL represents the fluorescence efficiency of free cap analogue and ∆f represents the difference between the fluorescence efficiencies of the apo-protein and the complex (Fig. S2c).
as §4

[8] = biological target: T5, X4E1a1’ (K102R) (Xenopus laevis, UniProt P48597, K102R); assay: fluorescence titration, XeIF4E1a mutant; type: binding; conditions: mutant (K102R) of XeIF4E1a
T5 construct: made in house; host or cells: E. coli Rosetta2(DE3)
T5 sequence (P48597 whole entry K102R): as the sequence (P48597 whole entry) above, with K102R counted along it
Text: as §5, §6, §7, §4

[9] = biological target: T6, X4E1a2 (E101S/K102R) (Xenopus laevis, UniProt P48597, E101S/K102R); assay: fluorescence titration, XeIF4E1a mutant; type: binding; conditions: mutant (E101S/K102R) of XeIF4E1a
T6 construct: made in house; host or cells: E. coli Rosetta2(DE3)
T6 sequence (P48597 whole entry E101S/K102R): as the sequence (P48597 whole entry) above, with E101S, K102R counted along it
Text: as §5, §6, §7, §4

[10] = biological target: T7, X4E1a3 (E101S/K102R/S195A) (Xenopus laevis, UniProt P48597, E101S/K102R/S195A); assay: fluorescence titration, XeIF4E1a mutant; type: binding; conditions: mutant (E101S/K102R/S195A) of XeIF4E1a
T7 construct: made in house; host or cells: E. coli Rosetta2(DE3)
T7 sequence (P48597 whole entry E101S/K102R/S195A): as the sequence (P48597 whole entry) above, with E101S, K102R, S195A counted along it
Text: as §5, §6, §7, §4

[11] = biological target: T8, X4E1a4 (E101S/K102R/S195A/M82S) (Xenopus laevis, UniProt P48597, E101S/K102R/M82S/S195A); assay: fluorescence titration, XeIF4E1a mutant; type: binding; conditions: mutant (E101S/K102R/S195A/M82S) of XeIF4E1a
T8 construct: made in house; host or cells: E. coli Rosetta2(DE3)
T8 sequence (P48597 whole entry M82S/E101S/K102R/S195A): as the sequence (P48597 whole entry) above, with M82S, E101S, K102R, S195A counted along it
Text: as §5, §6, §7, §4

[12] = biological target: T9, X4E1a6 (E101S/K102R/S195A/M82S/T206L/T207S) (Xenopus laevis, UniProt P48597, E101S/K102R/M82S/S195A/T206L/T207S); assay: fluorescence titration, XeIF4E1a mutant; type: binding; conditions: for Kas X4E1a6: mutant (E101S/K102R/S195A/M82S/T206L/T207S) of XeIF4E1a
T9 construct: made in house; host or cells: E. coli Rosetta2(DE3)
T9 sequence (P48597 whole entry M82S/E101S/K102R/S195A/T206L/T207S): as the sequence (P48597 whole entry) above, with M82S, E101S, K102R, S195A, T206L, T207S counted along it
Text: as §5, §6, §7, §4

Compound	Kas + glycerol XeIF4E1a [1]	Kas − glycerol XeIF4E1a [1]	Ratio Kas (h4E1a) to Kas (X4E1a) [2]	Kas − glycerol heIF4E1a [3]	Kas − glycerol heIF4E1b [4]	Ratio Kas (h4E1a) to Kas (h4E1b) [5]	Ratio Kas (X4E1a) to Kas (X4E1bΔN27) ([6]; 10% glycerol)	Kas + glycerol XeIF4E1bΔN27 ([6]; 10% glycerol)	Kas X4E1a1 [7]	Kas X4E1a1’ [8]	Kas X4E1a2 [9]	Kas X4E1a3 [10]	Kas X4E1a4 [11]	Kas X4E1a6 [12]	also measured
Nc1nc2c(c(=O)[nH]1)n(Cc1ccccc1)c[n+]2[C@@H]1O[C@H](COP(=O)(O)OP(=O)(O)O)[C@@H](O)[C@H]1O [bn^7GDP]	6.04 ± 0.92 μM^− 1	10.62 ± 0.98 μM^− 1	1.58	16.79 ± 0.56 μM^− 1	35.4 ± 1.6 μM^− 1	0.47	1.38	4.36 ± 0.18 μM^− 1	9.01 ± 0.21 µM⁻¹	11.22 ± 0.65 µM⁻¹	8.86 ± 0.16 µM⁻¹	9.08 ± 0.33 µM⁻¹	11.66 ± 0.64 µM⁻¹	7.09 ± 0.18 µM⁻¹	ΔΔG^o − glycerol XeIF4E1a ([1]; change relative to m^7GDP): 0.042 ± 0.059 kcal/mol; ΔΔG^o − glycerol heIF4E1a ([3]; change relative to m^7GDP): 0.033 ± 0.022 kcal/mol; fold increase of association constant compared with m^7GDP ([4]; benzyl substitution): approximately 5 fold; fold increase of association constant compared with m^7GDP ([6]; benzyl substitution): ~2 fold; Kas + glycerol X4E1a6 ([12]; 10% glycerol, Fig. 5d): 3.57 ± 0.24 µM⁻¹
CCn1c[n+]([C@@H]2O[C@H](COP(=O)(O)OP(=O)(O)OP(=O)(O)O)[C@@H](O)[C@H]2O)c2nc(N)[nH]c(=O)c21 [et^7GTP]	4.97 ± 0.22 μM^− 1	7.89 ± 0.57 μM^− 1	1.65	13.04 ± 0.31 μM^− 1	7.34 ± 0.34 μM^− 1	1.78	2.20	2.26 ± 0.20 μM^− 1	7.14 ± 0.63 µM⁻¹	7.38 ± 0.18 µM⁻¹	7.132 ± 0.088 µM⁻¹	6.23 ± 0.17 µM⁻¹	8.21 ± 0.51 µM⁻¹	4.41 ± 0.16 µM⁻¹	fold decrease of association constant relative to m^7GTP ([1]; N^7-methyl replaced by ethyl): approximately 5 fold; ΔΔG^o + glycerol XeIF4E1a ([1]; change relative to m^7GTP): 0.900 ± 0.035 kcal/mol; ΔΔG^o − glycerol XeIF4E1a ([1]; change relative to m^7GTP): 0.984 ± 0.050 kcal/mol; fold decrease of association constant relative to m^7GTP ([3]; N^7-methyl replaced by ethyl): approximately 5 fold; ΔΔG^o − glycerol heIF4E1a ([3]; change relative to m^7GTP): 0.965 ± 0.045 kcal/mol; fold decrease of association constant relative to m^7GTP ([4]; N^7-methyl replaced by ethyl): 3 fold; ΔΔG^o − glycerol heIF4E1b ([4]; change relative to m^7GTP, without glycerol): 0.639 ± 0.045 kcal/mol; fold decrease of association constant relative to m^7GTP ([6]; N^7-methyl replaced by ethyl): 3 fold; ΔΔG^o + glycerol XeIF4E1bΔN27 ([6]; change relative to m^7GTP, 10% glycerol): 0.722 ± 0.059 kcal/mol
Cn1c[n+]([C@@H]2O[C@H](COP(=O)([O-])OP(=O)(O)OP(=O)(O)O)[C@@H](O)[C@H]2O)c2nc(N)[nH]c(=O)c21 [m^7GTP]	23.34 ± 0.88 μM^− 1	42.8 ± 2.0 μM^− 1			22.0 ± 1.4 μM^− 1			7.80 ± 0.41 μM^− 1	33.58 ± 0.66 µM⁻¹	34.3 ± 1.7 µM⁻¹	32.76 ± 0.51 µM⁻¹	28.1 ± 1.5 µM⁻¹	26.7 ± 2.2 µM⁻¹	19.8 ± 0.4 µM⁻¹	decrease of association constant compared to wild-type XeIF4E1a ([12]; all six residues replaced): 50%
Cn1c[n+]([C@@H]2O[C@H](COP(=O)(O)OP(=O)(O)OP(=O)(O)OP(=O)(O)OP(=O)(O)O)[C@@H](O)[C@H]2O)c2nc(N)[nH]c(=O)c21 [m^7Gp5]	230 ± 31 μM^− 1	378 ± 44 μM^− 1	1.44	547 ± 31 μM^− 1	146.6 ± 9.9 μM^− 1	3.73	3.50	65.6 ± 4.2 μM^− 1	279 ± 34 µM⁻¹	382 ± 16 µM⁻¹	280 ± 11 µM⁻¹			190 ± 6 µM⁻¹	
CO[C@@H]1[C@H](O)[C@@H](COP(=O)(O)OP(=O)(O)OP(=O)(O)OC[C@H]2O[C@@H](n3c[n+](C)c4c(=O)[nH]c(N)nc43)[C@H](O)[C@@H]2O)O[C@H]1n1cnc2c(=O)[nH]c(N)nc21 [m^7Gpppm^2′-OG]	2.189 ± 0.026 μM^− 1			4.77 ± 0.13 μM^− 1	3.568 ± 0.071 μM^− 1	1.34									ΔΔG^o + glycerol XeIF4E1a ([1]; change relative to m^7Gp3G): 0.026 ± 0.018 kcal/mol; ΔΔG^o − glycerol heIF4E1a ([3]; change relative to m^7Gp3G): 0.128 ± 0.041 kcal/mol
